Test results from patent US12371428B2 (Exelixis, Inc., priority 2019, dated 2025).
Counter-ions that a name gives are not always drawn.

Biological target: Mer (phospho-Mer, MERTK-transfected 293A cells) (Homo sapiens (Human), UniProt Q12866)
Test: Mer autophosphorylation ELISA in transient transfected 293A cells (Example H)
Format: cell-based
Settings: cellular activity; Mer autophosphorylation ELISA in transient transfected 293A cells
How it was run: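 IC50 from phospho-Mer ELISA of MERTK-transfected 293A cell lysates after 1 h treatment with serially diluted compound in serum-free medium.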

Mer (phospho-Mer, MERTK-transfected 293A cells), sequence (Q12866 21-999): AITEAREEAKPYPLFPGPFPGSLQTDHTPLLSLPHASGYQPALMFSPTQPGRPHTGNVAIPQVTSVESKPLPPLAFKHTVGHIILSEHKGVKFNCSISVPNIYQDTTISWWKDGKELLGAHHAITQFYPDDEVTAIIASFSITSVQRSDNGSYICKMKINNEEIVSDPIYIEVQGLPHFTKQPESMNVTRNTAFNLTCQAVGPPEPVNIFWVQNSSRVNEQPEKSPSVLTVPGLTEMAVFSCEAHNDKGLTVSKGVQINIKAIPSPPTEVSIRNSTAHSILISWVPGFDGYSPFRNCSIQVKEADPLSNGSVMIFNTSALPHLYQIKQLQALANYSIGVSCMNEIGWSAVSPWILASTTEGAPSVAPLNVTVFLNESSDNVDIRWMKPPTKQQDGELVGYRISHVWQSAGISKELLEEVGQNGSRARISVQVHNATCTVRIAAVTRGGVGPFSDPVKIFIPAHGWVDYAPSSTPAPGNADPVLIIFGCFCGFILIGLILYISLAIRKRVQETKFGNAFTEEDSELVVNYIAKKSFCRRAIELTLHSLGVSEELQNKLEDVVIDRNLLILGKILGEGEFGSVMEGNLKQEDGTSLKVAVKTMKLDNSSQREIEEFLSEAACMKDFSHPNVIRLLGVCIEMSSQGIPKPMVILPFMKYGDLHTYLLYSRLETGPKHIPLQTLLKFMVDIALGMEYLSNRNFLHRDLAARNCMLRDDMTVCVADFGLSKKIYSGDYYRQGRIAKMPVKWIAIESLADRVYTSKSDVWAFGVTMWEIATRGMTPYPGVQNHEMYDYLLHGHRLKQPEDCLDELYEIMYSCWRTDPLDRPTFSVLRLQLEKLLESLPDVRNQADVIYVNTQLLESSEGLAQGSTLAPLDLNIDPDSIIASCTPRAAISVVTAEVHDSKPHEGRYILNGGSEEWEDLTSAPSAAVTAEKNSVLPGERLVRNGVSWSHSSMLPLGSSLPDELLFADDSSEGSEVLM

| IC50 | Structure (SMILES) |
| --- | --- |
| < 100 nM | Cc1nc2c(Oc3ccc(NC(=O)c4cnc(C)c(-c5ccc(F)cc5)c4O)cc3F)ccnc2cc1-c1cccnc1 [Compound 618, N-[3-Fluoro-4-[(6-methyl-7-pyridin-3-yl-1,5-naphthyridin-4-yl)oxy]phenyl]-5-(4-fluorophenyl)-4-hydroxy-6-methylpyridine-3-carboxamide hydrochloride] |
| < 100 nM | COCCOc1nc2c(Oc3ccc(NC(=O)c4cnc(C)c(-c5ccc(F)cc5C)c4O)cc3F)ccnc2cc1OC [Compound 144, N-[3-Fluoro-4-[[7-methoxy-6-(2-methoxyethoxy)-1,5-naphthyridin-4-yl]oxy]phenyl]-5-(4-fluoro-2-methylphenyl)-4-hydroxy-6-methylpyridine-3-carboxamide] |
| < 100 nM | Cc1nc2c(Oc3ccc(NC(=O)c4cn(C(C)C)c(C)c(-c5ccc(F)cc5)c4=O)cc3F)ccnc2cc1-c1cnn(C(F)F)c1 [Compound 614, N-[4-[[7-[1-(Difluoromethyl)pyrazol-4-yl]-6-methyl-1,5-naphthyridin-4-yl]oxy]-3-fluorophenyl]-5-(4-fluorophenyl)-6-methyl-4-oxo-1-propan-2-ylpyridine-3-carboxamide hydrochloride] |
| < 100 nM | COc1cnc2c(Oc3ccc(NC(=O)c4cncc(-c5ccc(F)cc5)c4O)cc3)ccnc2c1 [Compound 146, 5-(4-Fluorophenyl)-4-hydroxy-N-[4-[(7-methoxy-1,5-naphthyridin-4-yl)oxy]phenyl]pyridine-3-carboxamide] |
| < 100 nM | CCc1nc2c(Oc3ccc(NC(=O)c4cn(C(C)C)c(C)c(-c5ccc(F)cc5)c4=O)cc3F)ccnc2cc1OC [Compound 588, N-[4-[(6-Ethyl-7-methoxy-1,5-naphthyridin-4-yl)oxy]-3-fluorophenyl]-5-(4-fluorophenyl)-6-methyl-4-oxo-1-propan-2-ylpyridine-3-carboxamide] |
| < 100 nM | COc1cc2nccc(Oc3ccc(NC(=O)c4cn(C(C)C)c(C)c(-c5ccc(F)cc5)c4=O)cc3F)c2nc1Br [Compound 143, N-[4-[(6-Bromo-7-methoxy-1,5-naphthyridin-4-yl)oxy]-3-fluorophenyl]-5-(4-fluorophenyl)-6-methyl-4-oxo-1-propan-2-ylpyridine-3-carboxamide] |
| < 100 nM | CCn1cc(C(=O)Nc2ccc(Oc3ccnc4cc(OC)cnc34)c(F)c2)c(=O)c(-c2ccc(F)cc2)c1C [Compound 164, 1-Ethyl-N-[3-fluoro-4-[(7-methoxy-1,5-naphthyridin-4-yl)oxy]phenyl]-5-(4-fluorophenyl)-6-methyl-4-oxopyridine-3-carboxamide] |
| < 100 nM | CCn1cc(C(=O)Nc2ccc(Oc3ccnc4cc(OC)c(OC)nc34)cc2)c(=O)c(-c2ccc(F)cc2)c1 [Compound 167, N-[4-[(6,7-Dimethoxy-1,5-naphthyridin-4-yl)oxy]phenyl]-1-ethyl-5-(4-fluorophenyl)-4-oxopyridine-3-carboxamide] |
| < 100 nM | COc1cc2nccc(Oc3ccc(NC(=O)c4cn(C(C)C)c(C)c(-c5ccc(F)cc5)c4=O)cc3F)c2nc1N [Compound 579, N-[4-[(6-Amino-7-methoxy-1,5-naphthyridin-4-yl)oxy]-3-fluorophenyl]-5-(4-fluorophenyl)-6-methyl-4-oxo-1-propan-2-ylpyridine-3-carboxamide] |
| < 100 nM | COc1cc2nccc(Oc3ccc(NC(=O)c4cn(OC)cc(-c5ccc(F)cc5)c4=O)cc3)c2nc1OC [Compound 127, N-[4-[(6,7-Dimethoxy-1,5-naphthyridin-4-yl)oxy]phenyl]-5-(4-fluorophenyl)-1-methoxy-4-oxopyridine-3-carboxamide] |
| 100 to 300 nM | COc1cc2nccc(Oc3ccc(NC(=O)c4cnc(C)c(-c5ccc(F)cc5)c4O)cc3F)c2nc1NS(C)(=O)=O [Compound 584, N-[3-Fluoro-4-[[6-(methanesulfonamido)-7-methoxy-1,5-naphthyridin-4-yl]oxy]phenyl]-5-(4-fluorophenyl)-4-hydroxy-6-methylpyridine-3-carboxamide] |
| < 100 nM | Cc1nc2c(Oc3ccc(NC(=O)c4cn(C(C)C)c(C)c(-c5ccc(F)cc5)c4=O)cc3F)ccnc2cc1-c1cccnc1 [Compound 620, N-[3-Fluoro-4-[(6-methyl-7-pyridin-3-yl-1,5-naphthyridin-4-yl)oxy]phenyl]-5-(4-fluorophenyl)-6-methyl-4-oxo-1-propan-2-ylpyridine-3-carboxamide] |
| < 100 nM | COc1cc2nccc(Oc3ccc(NC(=O)c4cn(C(C)C)cc(-c5ccc(F)cc5)c4=O)cc3)c2nc1OC [Compound 122, N-[4-[(6,7-Dimethoxy-1,5-naphthyridin-4-yl)oxy]phenyl]-5-(4-fluorophenyl)-4-oxo-1-propan-2-ylpyridine-3-carboxamide] |
| < 100 nM | Cc1ncc(C(=O)Nc2ccc(Oc3ccnc4cc(C(F)(F)F)cnc34)c(F)c2)c(O)c1-c1ccc(F)cc1 [Compound 151, 5-(4-Fluorophenyl)-N-[3-fluoro-4-[[7-(trifluoromethyl)-1,5-naphthyridin-4-yl]oxy]phenyl]-4-hydroxy-6-methylpyridine-3-carboxamide] |
| < 100 nM | COc1cnc2c(Oc3ccc(NC(=O)c4cn(C)c(C#N)c(-c5ccc(F)cc5)c4=O)cc3F)ccnc2c1 [Compound 586, 6-Cyano-N-[3-fluoro-4-[(7-methoxy-1,5-naphthyridin-4-yl)oxy]phenyl]-5-(4-fluorophenyl)-1-methyl-4-oxopyridine-3-carboxamide] |
| < 100 nM | COc1cc2nccc(Oc3ccc(NC(=O)c4cn(-c5cnn(C)c5)c(C)c(-c5ccc(F)cc5)c4=O)cc3F)c2nc1OC [Compound 140, N-[4-[(6,7-Dimethoxy-1,5-naphthyridin-4-yl)oxy]-3-fluorophenyl]-5-(4-fluorophenyl)-6-methyl-1-(1-methylpyrazol-4-yl)-4-oxopyridine-3-carboxamide] |
| < 100 nM | CCn1cc(C(=O)Nc2ccc(Oc3ccnc4cc(OC)c(OC)nc34)cc2)c(=O)c(-c2ccc(F)cc2)c1C [Compound 168, N-[4-[(6,7-Dimethoxy-1,5-naphthyridin-4-yl)oxy]phenyl]-1-ethyl-5-(4-fluorophenyl)-6-methyl-4-oxopyridine-3-carboxamide] |
| < 100 nM | COc1cnc2c(Oc3ccc(NC(=O)c4cn(C(C)C)c(C)c(-c5ccc(F)cc5)c4=O)cc3)ccnc2c1 [Compound 148, 5-(4-Fluorophenyl)-N-[4-[(7-methoxy-1,5-naphthyridin-4-yl)oxy]phenyl]-6-methyl-4-oxo-1-propan-2-ylpyridine-3-carboxamide] |
| < 100 nM | COc1cc2nccc(Oc3ccc(NC(=O)c4cnc(C(C)(C)C)c(-c5ccc(F)cc5)c4O)cc3F)c2nc1OC [Compound 155, 6-tert-Butyl-N-[4-[(6,7-dimethoxy-1,5-naphthyridin-4-yl)oxy]-3-fluorophenyl]-5-(4-fluorophenyl)-4-hydroxypyridine-3-carboxamide] |
| < 100 nM | COc1nc2c(Oc3ccc(NC(=O)c4cnc(C)c(-c5ccc(F)cc5)c4O)cc3F)ccnc2cc1Br [Compound 130, N-[4-[(7-Bromo-6-methoxy-1,5-naphthyridin-4-yl)oxy]-3-fluorophenyl]-5-(4-fluorophenyl)-4-hydroxy-6-methylpyridine-3-carboxamide] |
| < 100 nM | COc1cc2nccc(Oc3ccc(NC(=O)c4cnc(C)c(-c5ccc(F)cc5)c4O)cc3F)c2nc1Br [Compound 142, N-[4-[(6-Bromo-7-methoxy-1,5-naphthyridin-4-yl)oxy]-3-fluorophenyl]-5-(4-fluorophenyl)-4-hydroxy-6-methylpyridine-3-carboxamide] |
| 100 to 300 nM | COC(=O)c1cnc2c(Oc3ccc(NC(=O)c4cnc(C)c(-c5ccc(F)cc5)c4O)cc3F)ccnc2c1 [Compound 138, Methyl 8-[2-fluoro-4-[[5-(4-fluorophenyl)-4-hydroxy-6-methylpyridine-3-carbonyl]amino]phenoxy]-1,5-naphthyridine-3-carboxylate] |
| < 100 nM | COc1nc2c(Oc3ccc(NC(=O)c4cn(C(C)C)c(C)c(-c5ccc(F)cc5)c4=O)cc3F)ccnc2cc1Br [Compound 132, N-[4-[(7-Bromo-6-methoxy-1,5-naphthyridin-4-yl)oxy]-3-fluorophenyl]-5-(4-fluorophenyl)-6-methyl-4-oxo-1-propan-2-ylpyridine-3-carboxamide] |
| < 100 nM | Cc1cc2c(Oc3ccc(NC(=O)c4cnc(C)c(-c5ccc(F)cc5)c4O)cc3F)ccnc2cn1 [Compound 645, N-[3-fluoro-4-[(6-methyl-1,7-naphthyridin-4-yl)oxy]phenyl]-5-(4-fluorophenyl)-4-hydroxy-6-methylpyridine-3-carboxamide] |
| < 100 nM | Cc1nc2c(Oc3ccc(NC(=O)c4cn(C(C)C)c(C)c(-c5ccc(F)cc5)c4=O)cc3F)ccnc2cc1Br [Compound 153, N-[4-[(7-Bromo-6-methyl-1,5-naphthyridin-4-yl)oxy]-3-fluorophenyl]-5-(4-fluorophenyl)-6-methyl-4-oxo-1-propan-2-ylpyridine-3-carboxamide] |
| < 100 nM | Cc1ncc(C(=O)Nc2ccc(Oc3ccnc4cc(-c5cnn(C(F)F)c5)cnc34)cc2)c(O)c1-c1ccc(F)cc1 [Compound 611, N-[4-[[7-[1-(Difluoromethyl)pyrazol-4-yl]-1,5-naphthyridin-4-yl]oxy]phenyl]-5-(4-fluorophenyl)-4-hydroxy-6-methylpyridine-3-carboxamide] |
| < 100 nM | Cc1nc2c(Oc3ccc(NC(=O)c4cnc(C)c(-c5ccc(F)cc5)c4O)cc3F)ccnc2cc1-c1cnn(C(F)F)c1 [Compound 615, N-[4-[[7-[1-(Difluoromethyl)pyrazol-4-yl]-6-methyl-1,5-naphthyridin-4-yl]oxy]-3-fluorophenyl]-5-(4-fluorophenyl)-4-hydroxy-6-methylpyridine-3-carboxamide hydrochloride] |
| < 100 nM | COc1cnc2c(Oc3ccc(NC(=O)c4cn(OC)cc(-c5ccc(F)cc5)c4=O)cc3F)ccnc2c1 [Compound 128, N-[3-Fluoro-4-[(7-methoxy-1,5-naphthyridin-4-yl)oxy]phenyl]-5-(4-fluorophenyl)-1-methoxy-4-oxopyridine-3-carboxamide] |
